Test results taken from patent US5696277A, “Antiviral prodrugs” (Hostetler; Karl Y., priority 1994, dated 1997).
Read-outs that look alike come from different tables or passages of the source.

Tests used:
MRC-5 cells = assay: in vitro; format: cell-based, human
Experimental: (§1) The cytotoxicity of B-PFA and B-PAA in subconfluent MRC-5 cells was assessed by trypan blue exclusion.

in vitro = format: cell-based, human; conditions: human, mrc-5 cells
Experimental: as §1

human cytomegalovirus = assay: CMV antiviral susceptibility assay: HCMV DNA by nucleic acid hybridization in infected MRC-5 cells (Tables I and II); format: cell-based; conditions: for fold increase in activity / times the activity of PAA: HCMV; for IC50: HCMV-infected MRC-5 cells, HCMV DNA after five days, mean ± S.D. (n)
Experimental: Phosphonoacid derivatives having structures according to formula I were tested for antiviral activity in human embryonic lung fibroblasts (MRC-5) or in human epithelioid cervical carcinoma cells (HeLa) expressing the CD4 receptor (HT4-6C). HCMV (strain AD-169) and HSV-1 (wild type) were used to infect MRC-5 cells and HCMV or HSV-specific DNA was measured by DNA-probe methods (HybriwixTM, Diagnostic Hybrids, Inc., Athens, Ohio) according to the manufacturer's instructions. HIV replication was accessed in HIV-1 infected HT4-6C cells using a plaque reduction assay ([…]. et al. (1990) Antimicrobial Agents Chemother. 34:436). Subconfluent MRC-5 cells in 24-well culture dishes were pretreated for 24 hours with various concentrations of drug in MEM medium containing 2% FBS and antibiotics. The media was removed and virus added at a dilution that will result in a 3-4+ cytopathic effect (CPE) in the no-drug wells in five days. This was absorbed for 1 hour at 37° C., aspirated and replaced with the drug dilutions. After five days of incubation HCMV DNA was quantified in triplicate by nucleic acid hybridization using a CMV Antiviral Susceptibility Test Kit from Diagnostic Hybrids, Inc. (Athens, Ohio). The media was removed and cells lysed according to the manufacturer's instructions. After absorption of the lysate, the HybriwixTM filters were hybridized overnight at 60° C. The HybriwixTM were washed for 30 minutes at 73° C. and counted in a gamma counter. The results are expressed as a percentage of the untreated HCMV-infected control cells.

[1] = test system: human herpes simplex virus 1; assay: HSV antiviral susceptibility assay: HSV DNA by nucleic acid hybridization in infected MRC-5 cells (Table III); format: cell-based; conditions: for times more active than PFA / fold increase in activity: HSV-1; for fold increase in activity: versus PFA
Experimental: (§2) Phosphonoacid derivatives having structures according to formula I were tested for antiviral activity in human embryonic lung fibroblasts (MRC-5) or in human epithelioid cervical carcinoma cells (HeLa) expressing the CD4 receptor (HT4-6C). HCMV (strain AD-169) and HSV-1 (wild type) were used to infect MRC-5 cells and HCMV or HSV-specific DNA was measured by DNA-probe methods (Hybriwix™, Diagnostic Hybrids, Inc., Athens, Ohio) according to the manufacturer's instructions. HIV replication was accessed in HIV-1 infected HT4-6C cells using a plaque reduction assay (Larder, B. et al. (1990) Antimicrobial Agents Chemother. 34:436).
Subconfluent MRC-5 cells in 24-well culture dishes were inoculated by removing the media and adding HSV-1 virus at a dilution that will result in a 3-4+ CPE in the no-drug well in 20-24 hours. This was absorbed for 1 hour at 37° C., aspirated and replaced with various concentrations of drugs in MEM medium containing 2% FBS and antibiotics. After approximately 24 hours of incubation, HSV DNA was quantified in triplicate by nucleic acid hybridization using a HSV Antiviral Susceptibility Test Kit from Diagnostic Hybrids, Inc. (Athens, Ohio). The media was removed and cells lysed according to the manufacturer's instructions. After absorption of the lysate, the Hybriwix™ filters were hybridized overnight at […] The Hybriwix™ were washed for 30 minutes at 73° C. and counted in a gamma counter. The results are expressed as a percentage of the untreated HSV-infected control cells.

[2] = test system: human immunodeficiency virus-1; assay: HIV-1 plaque reduction assay in HT4-6C cells (Table IV); format: cell-based, HIV-1 in CD4-expressing human HeLa cells (HT4-6C); conditions: for fold increase in activity: HIV-1, versus PFA; for IC50: Human immunodeficiency virus 1, 72 h, HIV-1 plaque reduction in HT4-6C cells, 3 days, mean ± S.D. (n)
Experimental: as §2
HT4-6C cells and plaque reduction assay, CD4-expressing HeLa cells, HT4-6C cells (Chesebro, B. and K. Wehrly (1988) J. Virology 62:3779-3788), were obtained from Bruce Chesebro, Hamilton, Mont. The effect of antiviral compounds on HIV replication was measured by a plaque reduction assay. Briefly, monolayers of HT4-6C cells were infected with 100 to 300 PFU of virus per well in 24-well microdilution plates. Various concentrations of drug were added to the culture medium, Dulbecco's Modified Eagle Medium containing 5% fetal bovine serum and antibiotics, as noted above. After 3 days at 37° C., the monolayers were fixed with 10% formaldehyde solution in phosphate-buffered saline and stained with 0.25% crystal violet to visualize virus plaques (Larder, B. et al. (1989) Science 243:1731-1734). Antiviral activity was assessed as the percentage of control plaques measured in drug-treated samples.

[3] = in vivo; cited from earlier work
[4] = test system: reverse transcriptase of human immunodeficiency virus (HIV); conditions: cited from earlier work
[5] = test system: DNA polymerase of many viruses, including human cytomegalovirus (HCMV), herpes simplex virus (HSV); conditions: HSV and many other viruses; cited from earlier work
[6] = phosphonoacetate series, versus PAA
[7] = Human betaherpesvirus 5, MRC5, 120 h
[8] = Human alphaherpesvirus 1, MRC5, HSV-1-infected MRC-5 cells, approximately 24 hours, mean ± S.D. (n), read-out: IC50
[9] = phosphonoformate series, versus PFA

| SMILES | fold increase in activity (human cytomegalovirus; [6]) | IC50 (human cytomegalovirus; [7]) | fold increase in activity (human cytomegalovirus; [9]) | also measured |
| --- | --- | --- | --- | --- |
| CCCCCCCCCCCCCCCCCCOC[C@@H](O)COP(=O)(O)CC(=O)O [B--PAA, 1O-octadecyl-snglycero-3-phosphonoacetic acid] | 100 fold | 0.22 ± 0.08 µM |  | selectivity index (MRC-5 cells): ≥ 300; CC50 (in vitro): 32 to 100 µM |
| CCCCCCCCCCCCCCCCCCOC[C@@H](O)COP(=O)(O)CC(=O)OCC [B--PAA--OEt, 1O-octadecyl-snglycero-3-phosphonoacetate ethyl ester] | 6.1 fold | 3.6 ± 1.5 µM |  |  |
| CCCCCCCCCCCCCCCCCCOC[C@@H](O)COP(=O)(O)C(=O)O [B--PFA, 1O-octadecyl-snglycero-3-phosphonoformic acid] |  | 0.43 ± 0.27 µM | 107 fold | times more active than PFA [1]: 43 times; fold increase in activity [1]: 43 fold; IC50 [1, 8]: 1.1 ± 1.1 µM; fold increase in activity [2]: 37 fold; IC50 [2]: 3.6 ± 1.51 µM; selectivity index (MRC-5 cells): ≥ 300; CC50 (in vitro): > 1000 µM |
| CCCCCCCCCCCCCCCCCCOC[C@@H](O)COP(=O)(O)C(=O)OCC [B--PFA--OEt, 1O-octadecyl-snglycero-3-phosphonoformate ethyl ester] |  | 1.2 ± 0.49 µM | 38 fold |  |
| CCCCCCCCCCCCCCCCCCOC[C@H](COC(=O)CP(=O)(O)O)OCc1ccccc1 [BB--(C)--PAA, 1O-octadecyl-2-O-benzyl-snglycero-3-carboxymethylenephosphonate] | 16 fold | 1.4 ± 0.9 µM |  |  |
| CCCCCCCCCCCCCCCCCCOC[C@H](COP(=O)(O)CC(=O)O)OCc1ccccc1 [BB--PAA, 1O-octadecyl-2-O-benzyl-snglycero-3-phosphonoacetic acid] | 24 fold | 0.92 ± 0.8 µM |  |  |
| CCCCCCCCCCCCCCCCCCOC[C@H](COP(=O)(O)CC(=O)OCC)OCc1ccccc1 [BB--PAA--OEt, 1O-octadecyl-2-O-benzyl-snglycero-3-phosphonoacetate ethyl ester] | 3.1 fold | 7.2 ± 1 µM |  |  |
| CCCCCCCCCCCCCCCCCCOC[C@H](COP(=O)(O)C(=O)O)OCc1ccccc1 [BB--PFA, 1O-octadecyl-2-O-benzyl-snglycero-3-phosphonoformic acid] |  | 0.64 ± 0.65 µM | 72 fold | times more active than PFA [1]: 34 times; fold increase in activity [1]: 34 fold; IC50 [1, 8]: 1.4 ± 0.4 µM; fold increase in activity [2]: 9.0 fold; fold increase in activity ([2]; listed as BB-PFA): 9 fold; IC50 [2]: 14.8 ± 7.3 µM |
| CCCCCCCCCCCCCCCCCCOC[C@H](COP(=O)(O)C(=O)OCC)OCc1ccccc1 [BB--PFA--OEt, 1O-octadecyl-2-O-benzyl-snglycero-3-phosphonoformate ethyl ester] |  | 2.9 ± 0.97 µM | 16 fold |  |
| CCCCCCCCCCCCCC(=O)OC[C@H](COP(=O)(O)CC(=O)O)OC(=O)CCCCCCCCCCCCC [DMG--PAA, 1,2dimyristoyl-snglycero-3-phosphonoacetate] | 1.2 fold | 19 ± 6.5 µM |  | times the activity of PAA (human cytomegalovirus): 1.2 times |
| CCCCCCCCCCCCCC(=O)OC[C@H](COP(=O)(O)CC(=O)OCC)OC(=O)CCCCCCCCCCCCC [DMG--PAA--OEt, 1,2dimyristoyl-snglycero-3-phosphonoacetate ethyl ester] | 0.2 fold | 108 ± 42 µM |  |  |
| CCCCCCCCCCCCCC(=O)OC[C@H](COP(=O)(O)C(=O)O)OC(=O)CCCCCCCCCCCCC [DMG--PFA, 1,2dimyristoyl-snglycero-3-phosphonoformate] |  | 125 ± 43 µM | 0.33 fold |  |
| CCCCCCCCCCCCCC(=O)OC[C@H](COP(=O)(O)C(=O)OCC)OC(=O)CCCCCCCCCCCCC [DMG--PFA--OEt, 1,2dimyristoyl-snglycero-3-phosphonoformate ethyl ester] |  | 30 ± 18 µM | 1.53 fold |  |
| CCCCCCCCCCCCCC(=O)OC[C@H](COP(=O)(O)OP(=O)(O)CC(=O)O)OC(=O)CCCCCCCCCCCCC [DMP--PAA, 1,2dimyristoyl-snglycero-3-phospho-phosphonoacetate] | 0.2 fold |  |  | times the activity of PAA (human cytomegalovirus): 0.24 times; IC50 (human cytomegalovirus): 93 ± 92 µM |
| CCCCCCCCCCCCCC(=O)OC[C@H](COP(=O)(O)OP(=O)(O)CC(=O)OCC)OC(=O)CCCCCCCCCCCCC [DMP--PAA--OEt, 1,2dimyristoyl-snglycero-3-phospho-phosphonoacetate ethyl ester] | 0.2 fold |  |  | IC50 (human cytomegalovirus): 130 ± 28 µM |
| CCCCCCCCCCCCCCCC(=O)OC[C@H](COP(=O)(O)OP(=O)(O)CC(=O)O)OC(=O)CCCCCCCCCCCCCCC [DPP--PAA, 1,2dipalmitoyl-snglycero-3-phospho-phosphonoacetate] | 0.3 fold |  |  | times the activity of PAA (human cytomegalovirus): 0.28 times; IC50 (human cytomegalovirus): 80 ± 42 µM |
| CCCCCCCCCCCCCCCCCCOC[C@H](COP(=O)(O)CC(=O)O)OC [MB--PAA, 1O-octadecyl-2-O-methyl-snglycero-3-phosphonoacetic acid] | 36 fold | 0.61 ± 0.76 µM |  |  |
| CCCCCCCCCCCCCCCCCCOC[C@H](COP(=O)(O)CC(=O)OCC)OC [MB--PAA--OEt, 1-O-octadecyl-2-O-methyl-sn-glycero-3-phosphonoacetic acid ethyl ester] | 3.3 fold | 6.7 ± 1.9 µM |  |  |
| CCCCCCCCCCCCCCCCCCOC[C@H](COP(=O)(O)C(=O)O)OC [MB--PFA, 1O-octadecyl-2-O-methyl-snglycero-3-phosphonoformic acid] |  | 0.64 ± 0.14 µM | 72 fold | times more active than PFA [1]: 72 times; fold increase in activity [1]: 72 fold; IC50 [1, 8]: 0.65 ± 0.21 µM; activity compared with B-PFA ([2]; HIV-1, HT4-6C cells, p = 0.0373 versus B-PFA): more active than B-PFA to a statistically significant degree; fold increase in activity [2]: 104 fold; IC50 [2]: 1.28 ± 0.73 µM; fold increase in activity (human cytomegalovirus; phosphonoformate series, versus PFA, listed as MB-PFA): 38 fold |
| O=C(O)CP(=O)(O)O [PAA, phosphonoacetic acid] |  | 22 ± 7 µM |  | toxicity in humans [3]: too toxic for use in humans; selective inhibition of HIV reverse transcriptase [4]: selectively inhibit; selective inhibition of viral DNA polymerase [5]: selectively inhibit the DNA polymerase of many viruses |
| O=C(O)P(=O)(O)O [PFA, phosphonoformic acid, reference compound] |  | 46 ± 19 µM |  | IC50 ([1]; Human alphaherpesvirus 1, MRC5, 24 h): 47 ± 20 µM; toxicity in humans [3]: substantial toxicity to the kidney and other organs; IC50 [2]: 133 ± 54 µM; selective inhibition of HIV reverse transcriptase [4]: selectively inhibit; selective inhibition of viral DNA polymerase [5]: selectively inhibit the DNA polymerase of many viruses |
